Source: BindingDB's records for doi:10.1007/s10822-022-00478-x (Roche Innovation Center Basel, F. Hoffmann-La Roche Ltd., 2022)

Target: cAMP and cAMP-inhibited cGMP 3',5'-cyclic phosphodiesterase 10A (Homo sapiens, UniProt Q9Y233)
Assay: PDE10A assay
Procedure, shortened: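 Human PDE10A (2 ng/well) preincubated 15 min RT with compound in HEPES pH 7.5, 10 mM MgCl2, BSA, then reacted 15 min with 50 nM [3H]cGMP/cGMP substrate. Stopped with Y-Si SPA beads; bound radioactivity counted, IC50 from four-parameter logistic, pIC50 = −log10(IC50).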

Row | Compound | IC50
1 | Cc1ncc(C)n2nc(CCc3nc(N4CC5CC4C5)nn3C)nc12 [Roche-Dataset for PDE10A, Compound 524] | 858 nM
2 | CNC(=O)c1cc2[nH]c(-c3ccccc3)nc2cc1NC(=O)c1ccn(C)n1 [Roche-Dataset for PDE10A, Compound 526] | 111 nM
3 | Cc1noc(C(=O)Nc2ccc3cc(-c4ccccc4)nn3c2)c1Br [Roche-Dataset for PDE10A, Compound 529] | 18 nM
4 | CNC(=O)c1nn(C)cc1NC(=O)c1ccc2cc(-c3ccccc3)nn2c1 [Roche-Dataset for PDE10A, Compound 532] | 195 nM
5 | CCn1nc(CCc2nc3c(C)ncc(C)n3n2)nc1N1CCCC1 [Roche-Dataset for PDE10A, Compound 533] | 29 nM
6 | Cn1nc(-c2ccccn2)cc1NC(=O)c1c(C(=O)N2CCC2)cnn1C [Roche-Dataset for PDE10A, Compound 535] | 7.96 nM
7 | O=C(Nc1ccn([C@]23C[C@H]4C[C@H](C[C@H](C4)C2)C3)n1)c1nc(C2CC2)ccc1Nc1cncnc1 [Roche-Dataset for PDE10A, Compound 537] | 12 nM
8 | Cc1ccc2nc(Cl)c(OCc3nc(-c4ccccc4)cn3C)nc2c1 [Roche-Dataset for PDE10A, Compound 540] | 5.06 nM
9 | Cc1cc(Nc2cncnc2)cc(C(=O)Nc2cc(-c3ccccn3)nn2C)n1 [Roche-Dataset for PDE10A, Compound 542] | 92 nM
10 | Cn1cc(-c2ccccc2)nc1/C=C/c1cc(Cl)nc(Cl)n1 [Roche-Dataset for PDE10A, Compound 543] | 2310 nM
11 | O=C(Nc1ccc(-n2ccccc2=O)cc1)c1nc(C2CC2)ccc1Nc1cncnc1 [Roche-Dataset for PDE10A, Compound 545] | 20 nM
12 | CN1CCN(c2nc3cc(NC(=O)c4c(C(=O)N5CCC5)cnn4C)ccc3s2)CC1 [Roche-Dataset for PDE10A, Compound 546] | 392 nM
13 | Cn1nc(-c2ccccn2)cc1NC(=O)c1cc(C(F)(F)F)ncc1Br [Roche-Dataset for PDE10A, Compound 547] | 10000 nM
14 | Cc1cccc(-c2cc(NC(=O)c3c(C(=O)N4CCC4)cnn3C)n[nH]2)n1 [Roche-Dataset for PDE10A, Compound 548] | 9.76 nM
15 | CCOC(=O)c1cnn(C)c1C(=O)Nc1ccn2nc(N(C)C)nc2c1 [Roche-Dataset for PDE10A, Compound 549] | 314 nM
16 | Cn1nc(N2CCCC2)nc1/C=C/c1nc(N2CCCC2)nn1C [Roche-Dataset for PDE10A, Compound 550] | 188 nM
17 | O=C(Nc1ccccc1)c1cccc(NC(=O)c2nc(C3CC3)ccc2Nc2cncnc2)c1 [Roche-Dataset for PDE10A, Compound 556] | 6.79 nM
18 | CNC(=O)c1cc2[nH]c(-c3ccccc3)nc2cc1NC(=O)c1cc(C)on1 [Roche-Dataset for PDE10A, Compound 557] | 189 nM
19 | CNC(=O)c1cc2[nH]c(-c3ccccc3)nc2cc1NC(=O)c1cc(C)nn1C(C)(C)C [Roche-Dataset for PDE10A, Compound 558] | 944 nM
20 | Cc1ncc(C)n2nc(/C=C/c3nc(N4CC[C@@H](C)C4)nn3C)nc12 [Roche-Dataset for PDE10A, Compound 560] | 24 nM
21 | C[C@@H](NC(=O)c1ccc(NC(=O)c2nc(C3CC3)ccc2Nc2cncnc2)s1)c1ccccc1 [Roche-Dataset for PDE10A, Compound 563] | 320 nM
22 | Cc1ncc(C)n2nc(/C=C/c3nc(N4CC[C@H](C)C4)nn3C)nc12 [Roche-Dataset for PDE10A, Compound 566] | 45 nM

Row | Compound | IC50
23 | CN(C)c1nc2cc(NC(=O)c3c(C(=O)N4CCOCC4)cnn3C)ccn2n1 [Roche-Dataset for PDE10A, Compound 568] | 39 nM
24 | NS(=O)(=O)c1ccc(CCNC(=O)c2nc(C3CC3)cnc2Nc2cncnc2)cc1 [Roche-Dataset for PDE10A, Compound 569] | 300 nM
25 | O=C1c2ccccc2C(=O)N1CCc1nc(-c2ccncc2)no1 [Roche-Dataset for PDE10A, Compound 570] | 11900 nM
26 | CC(=O)Nc1cccc(NC(=O)c2nc(C3CC3)cnc2Nc2cncnc2)c1 [Roche-Dataset for PDE10A, Compound 571] | 35 nM
27 | CN(C)c1nc(/C=C/c2cccc(Br)n2)nc2ccc(Cl)cc12 [Roche-Dataset for PDE10A, Compound 574] | 281 nM
28 | CNC(=O)c1cc(NC(=O)c2nc(C3CC3)ccc2Nc2cncnc2)n(C)n1 [Roche-Dataset for PDE10A, Compound 576] | 74 nM
29 | O=C1c2ccccc2C(=O)N1CCc1nc(-c2cccnc2)no1 [Roche-Dataset for PDE10A, Compound 579] | 16400 nM
30 | O=C(Nc1ccn(C2CCCC2)n1)c1nc(C2CC2)ccc1Nc1cncnc1 [Roche-Dataset for PDE10A, Compound 580] | 5.65 nM
31 | CN(CCNC(=O)c1nc(C2CC2)cnc1Nc1cncnc1)C(=O)c1ccccn1 [Roche-Dataset for PDE10A, Compound 581] | 10000 nM
32 | Cc1c(Cl)cc(Cl)c2nc(CCc3nncn3-c3ccccc3)nn12 [Roche-Dataset for PDE10A, Compound 582] | 72 nM
33 | CCc1cnc(C)n2nc(CCc3nc(N4CCCC4)nn3C)nc12 [Roche-Dataset for PDE10A, Compound 584] | 2.86 nM
34 | CN(C)c1nc(OCc2cc3ccccn3n2)nc2ccc(Cl)cc12 [Roche-Dataset for PDE10A, Compound 586] | 423 nM
35 | Cc1nc2cc(Cl)ccc2nc1OCc1nc(-c2ccccc2)cn1C [Roche-Dataset for PDE10A, Compound 587] | 4.05 nM
36 | O=C(NCCC(=O)N1CCOCC1)c1nc(C2CC2)cnc1Nc1cncnc1 [Roche-Dataset for PDE10A, Compound 591] | 1520 nM
37 | O=C(Nc1ccn2nc(-c3ccccc3)nc2c1)c1onc2ccc(Br)cc12 [Roche-Dataset for PDE10A, Compound 592] | 10 nM
38 | O=C(Nc1ccn(CC2CC2)n1)c1nc(C2CC2)ccc1Nc1cncnc1 [Roche-Dataset for PDE10A, Compound 593] | 23 nM
39 | Cc1ncc(C)n2nc(/C=C/c3nc(N4CCCC4)cn3C)nc12 [Roche-Dataset for PDE10A, Compound 596] | 326 nM
40 | O=C(Nc1ccn(CCO)n1)c1nc(C2CC2)ccc1Nc1cncnc1 [Roche-Dataset for PDE10A, Compound 597] | 50 nM
41 | Cn1cc(-c2ccccc2)nc1COc1cnc2cc(Cl)ccc2n1 [Roche-Dataset for PDE10A, Compound 598] | 9.77 nM
42 | CCc1nc(CNC(=O)c2cnn(C)c2C(=O)Nc2ccn3cc(-c4ccccc4)nc3n2)cs1 [Roche-Dataset for PDE10A, Compound 601] | 1130 nM
43 | CCOc1cccc(NC(=O)c2nc(C3CC3)cnc2Nc2cncnc2)c1 [Roche-Dataset for PDE10A, Compound 602] | 26 nM
44 | O=C(Nc1ccn(CC(F)(F)F)n1)c1nc(C2CC2)ccc1Nc1cncnc1 [Roche-Dataset for PDE10A, Compound 603] | 6.39 nM

Row | Compound | IC50
45 | Cc1ncc(C2CC2)c2nc(CCc3nc(N4CCCC4)nn3C)nn12 [Roche-Dataset for PDE10A, Compound 605] | 3.28 nM
46 | O=C(Nc1ccn2nc(-c3ccccc3)nc2c1)c1ccno1 [Roche-Dataset for PDE10A, Compound 606] | 2350 nM
47 | O=C(Nc1cnoc1-c1ccccc1)c1nc(C2CC2)ccc1Nc1cncnc1 [Roche-Dataset for PDE10A, Compound 607] | 1.93 nM
48 | COc1ccc(Cl)cc1C(=O)Nc1cc(-c2ccccn2)nn1C [Roche-Dataset for PDE10A, Compound 608] | 1380 nM
49 | Cc1ncc(C)n2nc(CCc3nc(C(=O)N(C)C)cn3C)nc12 [Roche-Dataset for PDE10A, Compound 609] | 1590 nM
50 | Cc1ccc(Nc2cncnc2)c(C(=O)Nc2ccn([C@]34C[C@H]5C[C@H](C[C@H](C5)C3)C4)n2)n1 [Roche-Dataset for PDE10A, Compound 610] | 52 nM
51 | CN(C)c1nc(/C=C/c2nc(Br)cs2)nc2ccc(Cl)cc12 [Roche-Dataset for PDE10A, Compound 612] | 1470 nM
52 | O=C(Nc1cnn(Cc2ccccc2)c1)c1nc(C2CC2)ccc1Nc1cncnc1 [Roche-Dataset for PDE10A, Compound 614] | 69 nM
53 | Cc1c(Cl)cc(C(F)(F)F)c2nc(CCc3nc(I)nn3C)nn12 [Roche-Dataset for PDE10A, Compound 615] | 123 nM
54 | Cc1ncc(C)n2nc(/C=C/c3nc(-c4cc[nH]n4)nn3C)nc12 [Roche-Dataset for PDE10A, Compound 618] | 46 nM
55 | CNC(=O)c1cc2[nH]c(-c3ccccc3)nc2cc1NC(=O)c1cc[nH]n1 [Roche-Dataset for PDE10A, Compound 619] | 390 nM
56 | CNC(=O)c1cc2[nH]c(-c3ccccc3)nc2cc1NC(=O)c1nc(C2CC2)ccc1Nc1cncnc1 [Roche-Dataset for PDE10A, Compound 621] | 0.09 nM
57 | CC(C)Cn1ccc(NC(=O)c2nc(C3CC3)ccc2Nc2cncnc2)n1 [Roche-Dataset for PDE10A, Compound 624] | 5.89 nM
58 | Cc1ncc(C)n2nc(CCc3nc(N4CCCC4)nn3C)nc12 [Roche-Dataset for PDE10A, Compound 626] | 2.3 nM
59 | O=C(Nc1ccnc(Cl)n1)c1cn(-c2ccc3ccccc3n2)cn1 [Roche-Dataset for PDE10A, Compound 627] | 1230 nM
60 | Cc1ncc(C)n2nc(/C=C/c3ncn(-c4ccccc4)n3)nc12 [Roche-Dataset for PDE10A, Compound 629] | 162 nM
61 | O=C(NCc1nccn1Cc1ccccc1)c1nc(C2CC2)cnc1Nc1cncnc1 [Roche-Dataset for PDE10A, Compound 631] | 273 nM
62 | O=C(Nc1ccn(C2CCCCC2)n1)c1nc(C2CC2)ccc1Nc1cncnc1 [Roche-Dataset for PDE10A, Compound 632] | 19 nM
63 | COc1cnc(C)n2c(CCc3nc(N4CCCC4)nn3C)nnc12 [Roche-Dataset for PDE10A, Compound 633] | 4190 nM
64 | Cn1nc(-c2ccc(C(F)(F)F)cn2)cc1NC(=O)c1c(C(=O)N2CCC2)cnn1C [Roche-Dataset for PDE10A, Compound 634] | 26 nM
